Measurements from ChEMBL document CHEMBL4052645, “Discovery of potent and efficacious pyrrolopyridazines as dual JAK1/3 inhibitors” (Bioorg Med Chem Lett, 2017).

What was measured:
[1] = target: Mitogen-activated protein kinase kinase kinase kinase 4 (Homo sapiens) (UniProt O95819); experiment: Inhibition of wild-type human partial length HGK (M1 to R310 residues) expressed in bacterial expression system assessed as residual activity at 50 nM by Kinomescan method relative to control
[2] = target: Serine/threonine-protein kinase 3 (Homo sapiens) (UniProt Q13188); experiment: Inhibition of human MST2 (D17 to E318 residues) expressed in bacterial expression system assessed as residual activity at 50 nM by KINOMEscan assay relative to control
[3] = target: Mast/stem cell growth factor receptor Kit (Homo sapiens) (UniProt P10721); experiment: Inhibition of wild-type human partial length KIT (I571 to D952 residues) expressed in bacterial expression system assessed as residual activity at 50 nM by Kinomescan method relative to control
[4] = target: AP2-associated protein kinase 1 (Homo sapiens) (UniProt Q2M2I8); experiment: Inhibition of human wild-type AAK1 (G25 to L333 residues) expressed in bacterial expression system assessed as residual activity at 50 nM by Kinomescan method relative to control
[5] = target: Cyclin-dependent kinase 16 (Homo sapiens) (UniProt Q00536); experiment: Inhibition of wild-type human partial length PCTAIRE1 (G160 to A474 residues) expressed in mammalian expression system assessed as residual activity at 50 nM by Kinomescan method relative to control
[6] = target: cGMP-dependent protein kinase 1 (Homo sapiens) (UniProt Q13976); experiment: Inhibition of wild-type human partial length PKG1 (L339 to F686 residues) expressed in bacterial expression system assessed as residual activity at 50 nM by Kinomescan method relative to control
[7] = target: Calcium/calmodulin-dependent protein kinase type II subunit beta (Homo sapiens) (UniProt Q13554); experiment: Inhibition of wild-type human partial length CAMK2B (M1 to Q380 residues) expressed in bacterial expression system assessed as residual activity at 50 nM by Kinomescan method relative to control
[8] = target: Serine/threonine-protein kinase ICK (Homo sapiens) (UniProt Q9UPZ9); experiment: Inhibition of wild-type human partial length ICK (M1 to P314 residues) expressed in mammalian expression system assessed as residual activity at 50 nM by Kinomescan method relative to control
[9] = target: Vascular endothelial growth factor receptor 1 (Homo sapiens) (UniProt P17948); experiment: Inhibition of wild-type human partial length FLT1 (R781 to F1239 residues) expressed in bacterial expression system assessed as residual activity at 50 nM by Kinomescan method relative to control
[10] = target: Phosphatidylinositol 5-phosphate 4-kinase type-2 gamma (Homo sapiens) (UniProt Q8TBX8); experiment: Inhibition of wild-type human partial length PIP5K2C (M1 to A421 residues) expressed in mammalian expression system assessed as residual activity at 50 nM by Kinomescan method relative to control
[11] = target: Serine/threonine-protein kinase MRCK gamma (Homo sapiens) (UniProt Q6DT37); experiment: Inhibition of wild-type human partial length DMPK2 (S46 to S408 residues) expressed in bacterial expression system assessed as residual activity at 50 nM by Kinomescan method relative to control
[12] = target: Tyrosine-protein kinase JAK1 (Homo sapiens, UniProt P23458); experiment: Inhibition of GST-tagged JAK1 (unknown origin) after 3 hrs by Caliper assay
[13] = target: Protein-tyrosine kinase 6 (Homo sapiens) (UniProt Q13882); experiment: Inhibition of wild-type human partial length BRK (L166 to T451 residues) expressed in bacterial expression system assessed as residual activity at 50 nM by Kinomescan method relative to control
[14] = target: TGF-beta receptor type-1 (Homo sapiens) (UniProt P36897); experiment: Inhibition of wild-type human partial length TGFBR1 (D179 to M503 residues) expressed in bacterial expression system assessed as residual activity at 50 nM by Kinomescan method relative to control
[15] = target: Phosphatidylinositol 4-phosphate 3-kinase C2 domain-containing subunit beta (Homo sapiens) (UniProt O00750); experiment: Inhibition of wild-type human partial length PI3KC2B (M1 to L1634 residues) expressed in mammalian expression system assessed as residual activity at 50 nM by Kinomescan method relative to control
[16] = target: Serine/threonine-protein kinase D2 (Homo sapiens) (UniProt Q9BZL6); experiment: Inhibition of wild-type human partial length PKD2 (A519 to E838 residues) expressed in bacterial expression system assessed as residual activity at 50 nM by Kinomescan method relative to control
[17] = target: Mitogen-activated protein kinase 11 (Homo sapiens) (UniProt Q15759); experiment: Inhibition of wild-type human full length p38-beta (M1 to Q364 residues) expressed in bacterial expression system assessed as residual activity at 50 nM by Kinomescan method relative to control
[18] = target: Tyrosine-protein kinase SYK (Homo sapiens) (UniProt P43405); experiment: Inhibition of wild-type human partial length SYK (D354 to N635 residues) expressed in bacterial expression system assessed as residual activity at 50 nM by Kinomescan method relative to control
[19] = target: Serine/threonine-protein kinase 38 (Homo sapiens) (UniProt Q15208); experiment: Inhibition of wild-type human partial length NDR1 (N33 to E449 residues) expressed in mammalian expression system assessed as residual activity at 50 nM by Kinomescan method relative to control
[20] = target: Dual specificity mitogen-activated protein kinase kinase 7 (Homo sapiens) (UniProt O14733); experiment: Inhibition of wild-type human full length MAP2K7 (M1 to R419 residues) expressed in mammalian expression system assessed as residual activity at 50 nM by Kinomescan method relative to control
[21] = target: Calcium/calmodulin-dependent protein kinase type II subunit alpha (Homo sapiens) (UniProt Q9UQM7); experiment: Inhibition of wild-type human partial length CAMK2A (M1 to K328 residues) expressed in bacterial expression system assessed as residual activity at 50 nM by Kinomescan method relative to control
[22] = target: BMP-2-inducible protein kinase (Homo sapiens) (UniProt Q9NSY1); experiment: Inhibition of human BIKE (S34 to N329 residues) expressed in bacterial expression system assessed as residual activity at 50 nM by KINOMEscan assay relative to control
[23] = target: Activin receptor type-1-like (Homo sapiens) (UniProt P37023); experiment: Inhibition of wild-type human ALK1 (L164 to Q503 residues) expressed in bacterial expression system assessed as residual activity at 50 nM by Kinomescan method relative to control
[24] = target: TGF-beta receptor type-2 (Homo sapiens) (UniProt P37173); experiment: Inhibition of wild-type human partial length TGFBR2 (I218 to K567 residues) expressed in bacterial expression system assessed as residual activity at 50 nM by Kinomescan method relative to control
[25] = target: Dual specificity mitogen-activated protein kinase kinase 2 (Homo sapiens) (UniProt P36507); experiment: Inhibition of wild-type human full length MAP2K2 (M1 to V400 residues) expressed in mammalian expression system assessed as residual activity at 50 nM by Kinomescan method relative to control

Sequence of AP2-associated protein kinase 1 (Homo sapiens) (Q2M2I8 whole entry, looked up, the tested form may be a part): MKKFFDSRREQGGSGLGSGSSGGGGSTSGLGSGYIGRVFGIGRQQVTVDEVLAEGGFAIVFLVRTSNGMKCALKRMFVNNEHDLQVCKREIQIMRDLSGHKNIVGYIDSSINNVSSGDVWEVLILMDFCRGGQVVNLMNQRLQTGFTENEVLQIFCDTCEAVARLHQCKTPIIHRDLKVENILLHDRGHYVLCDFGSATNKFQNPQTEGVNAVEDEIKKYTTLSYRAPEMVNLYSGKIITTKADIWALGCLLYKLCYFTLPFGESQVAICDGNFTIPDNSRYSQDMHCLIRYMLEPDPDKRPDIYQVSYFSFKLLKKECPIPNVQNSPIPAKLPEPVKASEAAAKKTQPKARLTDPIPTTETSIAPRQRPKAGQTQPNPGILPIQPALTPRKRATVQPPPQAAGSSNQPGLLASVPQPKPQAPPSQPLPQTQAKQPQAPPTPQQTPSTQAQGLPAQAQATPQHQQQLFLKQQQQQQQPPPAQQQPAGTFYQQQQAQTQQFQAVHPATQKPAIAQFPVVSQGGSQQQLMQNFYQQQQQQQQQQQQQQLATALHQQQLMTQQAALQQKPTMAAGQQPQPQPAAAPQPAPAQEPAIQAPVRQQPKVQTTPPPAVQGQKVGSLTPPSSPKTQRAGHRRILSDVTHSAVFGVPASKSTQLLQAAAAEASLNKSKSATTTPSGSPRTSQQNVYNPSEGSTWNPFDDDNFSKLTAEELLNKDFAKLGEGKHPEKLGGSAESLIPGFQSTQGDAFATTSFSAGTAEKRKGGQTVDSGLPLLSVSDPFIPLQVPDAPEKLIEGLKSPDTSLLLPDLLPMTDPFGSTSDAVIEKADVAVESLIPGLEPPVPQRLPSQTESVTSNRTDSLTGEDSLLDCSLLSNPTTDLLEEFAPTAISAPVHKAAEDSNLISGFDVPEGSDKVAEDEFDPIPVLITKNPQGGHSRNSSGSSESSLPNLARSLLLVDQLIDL
Sequence of Calcium/calmodulin-dependent protein kinase type II subunit alpha (Homo sapiens) (Q9UQM7 whole entry, the tested form may be a part): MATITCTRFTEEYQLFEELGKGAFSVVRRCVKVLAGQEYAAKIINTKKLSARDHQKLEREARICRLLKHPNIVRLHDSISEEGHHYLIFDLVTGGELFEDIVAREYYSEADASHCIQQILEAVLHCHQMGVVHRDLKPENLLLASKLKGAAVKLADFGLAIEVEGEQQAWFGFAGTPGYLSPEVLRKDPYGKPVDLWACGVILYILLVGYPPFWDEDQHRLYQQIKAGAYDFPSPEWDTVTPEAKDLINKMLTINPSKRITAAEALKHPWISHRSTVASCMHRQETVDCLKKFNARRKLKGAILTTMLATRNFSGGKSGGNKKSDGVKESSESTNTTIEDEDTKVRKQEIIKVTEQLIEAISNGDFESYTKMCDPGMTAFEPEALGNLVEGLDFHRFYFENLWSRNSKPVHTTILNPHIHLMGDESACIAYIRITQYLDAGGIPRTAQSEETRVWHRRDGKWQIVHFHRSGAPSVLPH
Sequence of Activin receptor type-1-like (Homo sapiens) (P37023 whole entry, the tested form may be a part): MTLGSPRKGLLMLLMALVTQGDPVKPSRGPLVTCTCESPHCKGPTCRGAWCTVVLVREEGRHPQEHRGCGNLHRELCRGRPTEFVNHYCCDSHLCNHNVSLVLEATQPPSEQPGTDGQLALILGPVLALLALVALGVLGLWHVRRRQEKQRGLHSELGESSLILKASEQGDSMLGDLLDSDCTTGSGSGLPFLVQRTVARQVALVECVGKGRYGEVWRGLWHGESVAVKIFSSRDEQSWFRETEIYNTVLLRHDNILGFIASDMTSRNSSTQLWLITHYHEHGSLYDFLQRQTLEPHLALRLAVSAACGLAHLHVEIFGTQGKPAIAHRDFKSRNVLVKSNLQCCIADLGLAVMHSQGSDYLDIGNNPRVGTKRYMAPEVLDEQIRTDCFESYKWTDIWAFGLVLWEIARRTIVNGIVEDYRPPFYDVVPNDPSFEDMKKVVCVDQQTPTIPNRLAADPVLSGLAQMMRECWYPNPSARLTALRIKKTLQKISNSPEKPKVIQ
Sequence of Cyclin-dependent kinase 16 (Homo sapiens) (Q00536 whole entry, the tested form may be a part): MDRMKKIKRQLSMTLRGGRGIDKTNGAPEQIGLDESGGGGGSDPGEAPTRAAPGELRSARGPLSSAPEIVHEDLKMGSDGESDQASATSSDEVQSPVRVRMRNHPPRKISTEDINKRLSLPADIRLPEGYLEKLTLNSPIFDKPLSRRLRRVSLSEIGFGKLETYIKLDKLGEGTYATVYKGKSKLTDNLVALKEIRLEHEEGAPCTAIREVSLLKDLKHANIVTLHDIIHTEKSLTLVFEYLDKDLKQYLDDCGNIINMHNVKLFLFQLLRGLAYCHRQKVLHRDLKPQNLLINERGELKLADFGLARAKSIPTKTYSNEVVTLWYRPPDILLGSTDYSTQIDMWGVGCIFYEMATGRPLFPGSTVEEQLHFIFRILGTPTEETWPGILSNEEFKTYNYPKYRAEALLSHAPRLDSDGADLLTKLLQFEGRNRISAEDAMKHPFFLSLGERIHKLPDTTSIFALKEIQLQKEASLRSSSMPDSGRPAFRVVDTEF
Sequence of Phosphatidylinositol 5-phosphate 4-kinase type-2 gamma (Homo sapiens) (Q8TBX8 whole entry, the tested form may be a part): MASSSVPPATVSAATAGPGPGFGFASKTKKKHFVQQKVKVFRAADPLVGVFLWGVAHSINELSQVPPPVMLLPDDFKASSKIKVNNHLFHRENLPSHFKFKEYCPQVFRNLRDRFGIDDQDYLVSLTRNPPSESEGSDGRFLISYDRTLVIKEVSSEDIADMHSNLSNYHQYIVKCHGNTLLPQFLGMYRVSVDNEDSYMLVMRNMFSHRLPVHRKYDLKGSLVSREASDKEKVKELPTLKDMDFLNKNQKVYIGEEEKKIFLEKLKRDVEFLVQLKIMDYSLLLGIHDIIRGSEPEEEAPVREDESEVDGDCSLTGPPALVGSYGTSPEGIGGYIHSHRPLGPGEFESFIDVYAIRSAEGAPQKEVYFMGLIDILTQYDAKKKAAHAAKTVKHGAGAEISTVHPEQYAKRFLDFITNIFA
Sequence of Serine/threonine-protein kinase MRCK gamma (Homo sapiens) (Q6DT37 whole entry, the tested form may be a part): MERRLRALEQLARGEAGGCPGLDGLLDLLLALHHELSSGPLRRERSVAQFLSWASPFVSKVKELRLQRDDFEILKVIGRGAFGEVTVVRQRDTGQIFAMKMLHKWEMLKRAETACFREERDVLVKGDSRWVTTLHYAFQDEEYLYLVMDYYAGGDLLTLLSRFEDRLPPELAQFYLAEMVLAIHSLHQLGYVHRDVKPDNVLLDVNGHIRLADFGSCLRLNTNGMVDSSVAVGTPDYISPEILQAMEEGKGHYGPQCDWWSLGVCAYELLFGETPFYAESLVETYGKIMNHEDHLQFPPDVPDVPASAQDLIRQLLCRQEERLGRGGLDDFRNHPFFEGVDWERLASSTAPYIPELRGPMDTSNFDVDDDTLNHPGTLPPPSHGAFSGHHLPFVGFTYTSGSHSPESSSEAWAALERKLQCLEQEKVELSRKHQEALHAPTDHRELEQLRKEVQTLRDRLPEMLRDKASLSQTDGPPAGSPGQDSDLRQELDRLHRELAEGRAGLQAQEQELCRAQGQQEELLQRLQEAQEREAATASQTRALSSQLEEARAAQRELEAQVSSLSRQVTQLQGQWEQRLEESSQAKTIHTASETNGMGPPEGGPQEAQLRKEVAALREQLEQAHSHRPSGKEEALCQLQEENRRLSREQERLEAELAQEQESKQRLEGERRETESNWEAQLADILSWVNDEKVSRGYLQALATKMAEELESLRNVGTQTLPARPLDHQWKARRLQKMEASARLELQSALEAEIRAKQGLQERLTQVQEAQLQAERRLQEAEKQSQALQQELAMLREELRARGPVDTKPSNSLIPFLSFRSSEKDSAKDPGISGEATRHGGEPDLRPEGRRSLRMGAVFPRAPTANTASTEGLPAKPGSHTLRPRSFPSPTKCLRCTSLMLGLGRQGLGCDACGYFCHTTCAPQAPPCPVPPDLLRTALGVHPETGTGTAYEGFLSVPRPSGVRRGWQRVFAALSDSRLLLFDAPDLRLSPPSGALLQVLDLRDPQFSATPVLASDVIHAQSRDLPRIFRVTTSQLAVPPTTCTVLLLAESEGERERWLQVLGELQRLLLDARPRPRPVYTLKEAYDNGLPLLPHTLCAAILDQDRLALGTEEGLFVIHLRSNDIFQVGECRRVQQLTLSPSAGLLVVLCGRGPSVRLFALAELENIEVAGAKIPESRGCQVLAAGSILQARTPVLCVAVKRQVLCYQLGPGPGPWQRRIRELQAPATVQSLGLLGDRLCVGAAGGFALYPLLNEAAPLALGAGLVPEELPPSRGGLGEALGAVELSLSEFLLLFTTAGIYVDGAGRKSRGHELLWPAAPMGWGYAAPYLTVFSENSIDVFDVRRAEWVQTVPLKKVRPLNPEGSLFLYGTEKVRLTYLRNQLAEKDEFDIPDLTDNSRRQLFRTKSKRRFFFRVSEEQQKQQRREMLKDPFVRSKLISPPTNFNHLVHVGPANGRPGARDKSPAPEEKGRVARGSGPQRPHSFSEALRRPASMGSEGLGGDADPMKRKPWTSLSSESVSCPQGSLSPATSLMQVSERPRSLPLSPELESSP
Sequence of Calcium/calmodulin-dependent protein kinase type II subunit beta (Homo sapiens) (Q13554 whole entry, the tested form may be a part): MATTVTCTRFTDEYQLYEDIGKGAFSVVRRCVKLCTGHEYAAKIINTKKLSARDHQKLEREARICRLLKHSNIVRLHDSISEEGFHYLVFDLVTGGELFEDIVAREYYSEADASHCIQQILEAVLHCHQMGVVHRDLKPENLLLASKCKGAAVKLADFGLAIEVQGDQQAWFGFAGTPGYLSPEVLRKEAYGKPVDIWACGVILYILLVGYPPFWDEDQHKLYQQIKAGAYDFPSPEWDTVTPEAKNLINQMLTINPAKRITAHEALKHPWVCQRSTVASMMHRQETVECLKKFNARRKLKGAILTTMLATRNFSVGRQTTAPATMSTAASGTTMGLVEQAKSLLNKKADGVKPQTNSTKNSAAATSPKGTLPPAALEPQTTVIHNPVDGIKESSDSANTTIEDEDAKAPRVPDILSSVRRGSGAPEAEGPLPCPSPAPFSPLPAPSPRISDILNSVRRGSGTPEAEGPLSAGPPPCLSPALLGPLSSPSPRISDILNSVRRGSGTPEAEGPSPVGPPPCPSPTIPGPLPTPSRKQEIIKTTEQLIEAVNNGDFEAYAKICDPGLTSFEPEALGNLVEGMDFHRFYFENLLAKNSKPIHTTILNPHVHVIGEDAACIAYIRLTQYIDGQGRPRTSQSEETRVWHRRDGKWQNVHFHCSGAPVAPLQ

| Structure (SMILES) | Activity [1] [%] | Activity [2] [%] | Activity [3] [%] | Activity [4] [%] | Activity [5] [%] | Activity [6] [%] | Activity [7] [%] | Activity [8] [%] | Activity [9] [%] | Activity [10] [%] | Activity [11] [%] | IC50 [12] [nM] | Activity [13] [%] | Activity [14] [%] | Activity [15] [%] | Activity [16] [%] | Activity [17] [%] | Activity [18] [%] | Activity [19] [%] | Activity [20] [%] | other results |
| --- | --- | --- | --- | --- | --- | --- | --- | --- | --- | --- | --- | --- | --- | --- | --- | --- | --- | --- | --- | --- | --- |
| CC1(C)[C@H](Nc2c(C(N)=O)cnn3cc(-c4ccccc4)cc23)CC[C@]1(C)N | 90 | 6.2 | 55 | 63 | 100 | 100 | 78 | 64 | 100 | 100 | 37 | 0.4 | 100 | 100 | 100 | 100 | 78 | 82 | 92 | 100 | Activity [21]: 88%; Activity [22]: 7.5%; Activity [23]: 100%; Activity [24]: 100%; Activity [25]: 84% |
| COc1ccc(-c2cc3c(N[C@@H]4CC[C@](C)(N)C4(C)C)c(C(N)=O)cnn3c2)cn1 | 100 | 6 | 98 | 73 | 89 | 100 | 92 | 100 | 90 | 100 | 97 | 1.9 | 96 | 95 | 100 | 100 | 80 | 91 | 99 | 55 | Activity [21]: 100%; Activity [22]: 42%; Activity [23]: 100%; Activity [24]: 100%; Activity [25]: 100% |
